Test results from PubChem BioAssay (NCI).
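Tested at 5 concentrations; 48 h exposure; 96-well plates; endpoints linearly interpolated, else capped at highest concentration. TGI marks complete inhibition of growth.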

Legend:
Assay in all cases: NCI tumour cell line growth inhibition, 48 h
CCRF-CEM leukemia = test system: CCRF-CEM leukemia
CAKI-1 renal = test system: CAKI-1 renal
IGROV1 ovarian = test system: IGROV1 ovarian
MCF7 breast = test system: MCF7 breast
SR leukemia = test system: SR leukemia
HOP-62 NSCLC = test system: HOP-62 NSCLC
KM12 colon = test system: KM12 colon
LOX IMVI melanoma = test system: LOX IMVI melanoma
MOLT-4 leukemia = test system: MOLT-4 leukemia
MDA-MB-435 = test system: MDA-MB-435
SF-295 CNS = test system: SF-295 CNS
K-562 leukemia = test system: K-562 leukemia
BT-549 breast = test system: BT-549 breast
SK-MEL-5 melanoma = test system: SK-MEL-5 melanoma
A549 NSCLC = test system: A549 NSCLC
SNB-19 CNS = test system: SNB-19 CNS
EKVX NSCLC = test system: EKVX NSCLC
U251 CNS = test system: U251 CNS
NCI-H226 lung = test system: NCI-H226 lung
OVCAR-3 ovarian = test system: OVCAR-3 ovarian
HCT-116 colon = test system: HCT-116 colon
MDA-N = test system: MDA-N
OVCAR-8 ovarian = test system: OVCAR-8 ovarian
SK-MEL-2 melanoma = test system: SK-MEL-2 melanoma
NCI/ADR-RES ovarian = test system: NCI/ADR-RES ovarian
OVCAR-5 ovarian = test system: OVCAR-5 ovarian
MALME-3M melanoma = test system: MALME-3M melanoma
786-0 renal = test system: 786-0 renal
SW-620 colon = test system: SW-620 colon
RPMI-8226 leukemia = test system: RPMI-8226 leukemia
M14 melanoma = test system: M14 melanoma
HT29 colon = test system: HT29 colon
UACC-62 melanoma = test system: UACC-62 melanoma
SN12C renal = test system: SN12C renal
MDA-MB-231 breast = test system: MDA-MB-231 breast
COLO 205 colon = test system: COLO 205 colon
A498 renal = test system: A498 renal
UO-31 renal = test system: UO-31 renal
PC-3 prostate = test system: PC-3 prostate
DU-145 prostate = test system: DU-145 prostate
SK-MEL-28 melanoma = test system: SK-MEL-28 melanoma
NCI-H522 lung = test system: NCI-H522 lung
SF-268 CNS = test system: SF-268 CNS
SK-OV-3 ovarian = test system: SK-OV-3 ovarian
RXF 393 renal = test system: RXF 393 renal
SNB-75 CNS = test system: SNB-75 CNS
T-47D breast = test system: T-47D breast
HS 578T breast = test system: HS 578T breast
HCC-2998 colon = test system: HCC-2998 colon
ACHN renal = test system: ACHN renal
SF-539 CNS = test system: SF-539 CNS
OVCAR-4 ovarian = test system: OVCAR-4 ovarian
HL-60(TB) leukemia = test system: HL-60(TB) leukemia
NCI-H23 lung = test system: NCI-H23 lung
HCT-15 colon = test system: HCT-15 colon
HOP-92 NSCLC = test system: HOP-92 NSCLC
NCI-H460 lung = test system: NCI-H460 lung
TK-10 renal = test system: TK-10 renal
UACC-257 melanoma = test system: UACC-257 melanoma

C[N+]12C=CC=C1C(N1CCCC1)c1scc(-c3ccccc3)c12 (stereo not drawn)
TGI (CCRF-CEM leukemia): > 100 µM | TGI (CAKI-1 renal): > 100 µM | TGI (IGROV1 ovarian): 31.6 µM | TGI (MCF7 breast): 71.7 µM | TGI (SR leukemia): 37.4 µM | TGI (HOP-62 NSCLC): > 100 µM | TGI (KM12 colon): 31.3 µM | TGI (LOX IMVI melanoma): > 100 µM | TGI (MOLT-4 leukemia): 64.6 µM | TGI (MDA-MB-435): > 100 µM | TGI (SF-295 CNS): > 100 µM | TGI (K-562 leukemia): 29.1 µM | TGI (BT-549 breast): > 100 µM | TGI (SK-MEL-5 melanoma): 27.6 µM | TGI (A549 NSCLC): > 100 µM | TGI (SNB-19 CNS): > 100 µM | TGI (EKVX NSCLC): > 100 µM | TGI (U251 CNS): > 100 µM | TGI (NCI-H226 lung): 28.9 µM | TGI (OVCAR-3 ovarian): 87.8 µM | TGI (HCT-116 colon): > 100 µM | TGI (MDA-N): 84.3 µM | TGI (OVCAR-8 ovarian): > 100 µM | TGI (SK-MEL-2 melanoma): 42.3 µM | TGI (NCI/ADR-RES ovarian): > 100 µM | TGI (OVCAR-5 ovarian): > 100 µM | TGI (MALME-3M melanoma): 49.8 µM | TGI (786-0 renal): > 100 µM | TGI (SW-620 colon): > 100 µM | TGI (RPMI-8226 leukemia): > 100 µM | TGI (M14 melanoma): > 100 µM | TGI (HT29 colon): 24.4 µM | TGI (UACC-62 melanoma): > 100 µM | TGI (SN12C renal): 70 µM | TGI (MDA-MB-231 breast): > 100 µM | TGI (COLO 205 colon): 41.2 µM | TGI (A498 renal): > 100 µM | TGI (UO-31 renal): > 100 µM | TGI (PC-3 prostate): 89.9 µM | TGI (DU-145 prostate): > 100 µM | TGI (SK-MEL-28 melanoma): > 100 µM | TGI (NCI-H522 lung): 29.7 µM | TGI (SF-268 CNS): > 100 µM | TGI (SK-OV-3 ovarian): > 100 µM | TGI (RXF 393 renal): 90.1 µM | TGI (SNB-75 CNS): 47.8 µM | TGI (T-47D breast): 78.4 µM | TGI (HS 578T breast): 67.5 µM

O=C(c1cccs1)N(C(=S)OCCOc1ccccc1)c1ccccc1
TGI (HCC-2998 colon): 59.4 µM | TGI (CCRF-CEM leukemia): 59.4 µM | TGI (ACHN renal): 72.1 µM | TGI (CAKI-1 renal): 83.8 µM | TGI (SF-539 CNS): 58 µM | TGI (IGROV1 ovarian): 79.2 µM | TGI (MCF7 breast): 44.6 µM | TGI (HOP-62 NSCLC): 72.5 µM | TGI (KM12 colon): 81 µM | TGI (LOX IMVI melanoma): 33.3 µM | TGI (MOLT-4 leukemia): 67.9 µM | TGI (MDA-MB-435): 33.7 µM | TGI (SF-295 CNS): 71 µM | TGI (K-562 leukemia): > 100 µM | TGI (BT-549 breast): 65.1 µM | TGI (OVCAR-4 ovarian): 86.7 µM | TGI (A549 NSCLC): > 100 µM | TGI (SNB-19 CNS): > 100 µM | TGI (EKVX NSCLC): 78.8 µM | TGI (U251 CNS): 48.8 µM | TGI (OVCAR-3 ovarian): 41.6 µM | TGI (HCT-116 colon): 44.6 µM | TGI (HL-60(TB) leukemia): 48 µM | TGI (MDA-N): 33.4 µM | TGI (OVCAR-8 ovarian): 87.8 µM | TGI (SK-MEL-2 melanoma): 55.6 µM | TGI (NCI/ADR-RES ovarian): 57.7 µM | TGI (OVCAR-5 ovarian): 70.2 µM | TGI (MALME-3M melanoma): 69.9 µM | TGI (786-0 renal): 73.7 µM | TGI (SW-620 colon): 80 µM | TGI (RPMI-8226 leukemia): 53.9 µM | TGI (M14 melanoma): 37.1 µM | TGI (HT29 colon): 96.5 µM | TGI (UACC-62 melanoma): 37.7 µM | TGI (SN12C renal): 55.5 µM | TGI (MDA-MB-231 breast): 61.9 µM | TGI (COLO 205 colon): 42.4 µM | TGI (A498 renal): 50.5 µM | TGI (NCI-H23 lung): 42.3 µM | TGI (PC-3 prostate): > 100 µM | TGI (HCT-15 colon): 84.7 µM | TGI (DU-145 prostate): > 100 µM | TGI (SK-MEL-28 melanoma): 55.9 µM | TGI (NCI-H522 lung): 45.1 µM | TGI (SF-268 CNS): > 100 µM | TGI (HOP-92 NSCLC): 45.9 µM | TGI (NCI-H460 lung): > 100 µM | TGI (SK-OV-3 ovarian): 73.5 µM | TGI (RXF 393 renal): 51.9 µM | TGI (SNB-75 CNS): 54.7 µM | TGI (T-47D breast): > 100 µM | TGI (HS 578T breast): > 100 µM | TGI (TK-10 renal): > 100 µM | TGI (UACC-257 melanoma): 69.9 µM
